Data from patent US9539249B2, “PPAR gamma agonists for treatment of multiple sclerosis” (InteKrin Therapeutics, Inc., priority 2013, dated 2017).
“Also recorded” adds a separate entry of the source. Like-named read-outs stand apart in the source and are kept apart here. Values belong to the molecule of their own block, whether it stands above or below them.

Tests used:
[1] = HPLC fractionation of radiolabeled INT131 before injection and at the close of the experiment; format: physicochemical; conditions: prior to injection and at the close of the experiment
Description: (§1) To test whether INT131 is able to penetrate the intact BBB INT131 was radiolabeled with tritium (“[^3H]INT131”), prior to intraperitoneal injection into adult Sprague-Dawley rats. The purity of the radiolabeled INT131 was determined by high-performance liquid chromatography (HPLC) fractionation prior to injection, and again at the close of the experiment. […] The test animals were sacrificed at 1, 6 and 24 hours after injection and blood, brain, cerebrospinal fluid (“CSF”), spinal cord, kidney, liver and small bowel were harvested for determination of [^3H]INT131 content by liquid scintillography.

[2] = test system: EAE; assay: EAE relapse model, INT131 treatment begun at first remission; format: in vivo, mice; conditions: for clinical course from the 22nd day following immunization: treated from day 20, vehicle animals relapsed; for relapse rate (percent of animals relapsed): 25th day post-immunization, vehicle 72 percent
Excerpt: EAE is a well-characterized and widely used model of MS. It is one of the few animal models in which drug therapeutic activity in the model often mimics and anticipates the drug's effects in human disease. In this model, mice are immunized with well-defined antigenic fragments of central nervous system myelin, such as fragments of the proteolipid protein (PLP). Over the course of 2 to 3 weeks the immunized animals develop a clinical and histopathologic syndrome of T-cell mediated cerebral autoimmunity that is highly reminiscent of relapsing/remitting MS (RRMS). The similarities between EAE and RRMS include inflammatory cerebral infiltrated and accompanying Th1/Th17 responses to both the disease initiating myelin PLP peptide, and subsequent epitope spread, seen in disease relapse. The animals were immunized with the myelin peptide (PLP^139-151) and the spread epitope peptide (PLP^178-191) which drives disease relapse. Studies consisted of three experimental arms in which the mice were given daily ip injection of vehicle, or either 1 or 3 mg/kg/d of INT131. Following immunization, the animals underwent daily neurological evaluation by an experienced investigator. In these studies treatment began at the time of the first remission. […] Following the expected clinical disease peak at about two weeks post-immunization, symptoms began to ebb as the animals drifted into remission. All of the animals were treated with INT131 on day 20. By the 22nd day following immunization relapse began as expected, however, only in the vehicle treated animals.

[3] = test system: infiltrating CD45-positive leukocytes; assay: CD45-positive leukocyte infiltration in brainstem of EAE mice treated at the peak of disease; format: in vivo
Excerpt: Initiating INT131 treatment during remission extends the time subjects remain relapse-free, as compared to vehicle/placebo treatment. However, because there is little active neuroinflammation during remission, this paradigm is not informative about the effects of INT131 on acute neuroinflammation. To better understand the effects of INT131 on the acute inflammatory response we treated mice with EAE at the height of the clinical disease. […] INT131 treatment was begun at the peak of disease (day 20) and brainstems were harvested at day 32, and stained with αCD45 to identify infiltrating leukocytes. CD45 (also known as Leukocyte Common Antigen) is expressed on all hematopoietic cells except erythrocytes and platelets, and is required for B- and T cell-receptor-mediated activation. Thus, CD45 is critical in mediating the inflammatory process. […] These findings unify the clinical and histological findings that INT131 is a potent and effective treatment of acute neuroinflammation in this model of RRMS.

[4] = Tissue distribution of [3H]INT131 after intraperitoneal injection (penetration of the intact BBB); format: in vivo, Sprague-Dawley rats; conditions: for concentration at 6 h: 6 h after ~50 mg/kg ip; for concentration at 24 h: 24 h after ~50 mg/kg ip
Description: as §1

[5] = Sprague-Dawley, CSF, intraperitoneal, rat, read-out: INT131 concentration in CSF
[6] = Sprague-Dawley, blood, intraperitoneal, rat, read-out: INT131 concentration in Blood
[7] = Sprague-Dawley, brain, intraperitoneal, rat, read-out: INT131 concentration in Brain
[8] = Sprague-Dawley, kidney, intraperitoneal, rat, read-out: INT131 concentration in Kidney
[9] = Sprague-Dawley, liver, intraperitoneal, rat, read-out: INT131 concentration in Liver
[10] = Sprague-Dawley, small bowel, intraperitoneal, rat, read-out: INT131 concentration in Small bowel
[11] = Sprague-Dawley, spinal cord, intraperitoneal, rat, read-out: INT131 concentration in Spinal cord

Compound: O=S(=O)(Nc1cc(Cl)c(Oc2cnc3ccccc3c2)c(Cl)c1)c1ccc(Cl)cc1Cl [[^3H]INT131]
stability of radiolabeled material over the course of the study (HPLC) [1]: virtually all of the radiolabeled material was found in a single peak

concentration at 1 h ([4]; Sprague-Dawley, CSF, intraperitoneal, 1 h after ~50 mg/kg ip, rat, read-out: INT131 concentration in CSF): 292 ng/g
concentration at 6 h [4, 5]: 2860 ng/g
concentration at 24 h [4, 5]: 5300 ng/g
concentration at 1 h ([4]; Sprague-Dawley, blood, intraperitoneal, 1 h after ~50 mg/kg ip, rat, read-out: INT131 concentration in Blood): 4050 ng/g
concentration at 6 h [4, 6]: 41800 ng/g
concentration at 24 h [4, 6]: 17900 ng/g
concentration at 1 h ([4]; Sprague-Dawley, brain, intraperitoneal, 1 h after ~50 mg/kg ip, rat, read-out: INT131 concentration in Brain): 569 ng/g
concentration at 6 h [4, 7]: 5980 ng/g
concentration at 24 h [4, 7]: 4650 ng/g
concentration at 1 h ([4]; Sprague-Dawley, kidney, intraperitoneal, 1 h after ~50 mg/kg ip, rat, read-out: INT131 concentration in Kidney): 7730 ng/g
concentration at 6 h [4, 8]: 32900 ng/g
concentration at 24 h [4, 8]: 15400 ng/g
concentration at 1 h ([4]; Sprague-Dawley, liver, intraperitoneal, 1 h after ~50 mg/kg ip, rat, read-out: INT131 concentration in Liver): 24400 ng/g
concentration at 6 h [4, 9]: 141000 ng/g
concentration at 24 h [4, 9]: 36400 ng/g
Kp at 6 h ([4]; Sprague-Dawley, rat, brain and spinal cord relative to blood, intraperitoneal, 50 mg/kg, 6 hours after injection, read-out: level of INT131 in brain and spinal cord relative to the level found in blood): ~0.1
concentration at 1 day ([4]; Sprague-Dawley, rat, brain and spinal cord, intraperitoneal, 50 mg/kg, 1 day after injection, read-out: absolute amount of INT131 in the brain and spinal cord): > 4000 ng/g
concentration at 1 h ([4]; Sprague-Dawley, rat, neural compartments (brain tissue), intraperitoneal, one hour after single administration of ~50 mg/kg, read-out: average amount of INT131 in the neural compartments): < 500 ng/g
Kp at 24 h ([4]; Sprague-Dawley, rat, neural tissues relative to circulation (blood), intraperitoneal, 50 mg/kg, 24 hours after injection, read-out: level of INT131 in neural tissues relative to that found in the circulation): 0.25
concentration at 1 h ([4]; Sprague-Dawley, small bowel, intraperitoneal, 1 h after ~50 mg/kg ip, rat, read-out: INT131 concentration in Small bowel): 19700 ng/g
concentration at 6 h [4, 10]: 223000 ng/g
concentration at 24 h [4, 10]: 34500 ng/g
concentration at 1 h ([4]; Sprague-Dawley, spinal cord, intraperitoneal, 1 h after ~50 mg/kg ip, rat, read-out: INT131 concentration in Spinal cord): 478 ng/g
concentration at 6 h [4, 11]: 4810 ng/g
concentration at 24 h [4, 11]: 4310 ng/g
increase of the amount of INT131 in the neural tissues versus 1 hour ([4]; at 6 and 24 hours): approximately 10 fold
amount in neural compartments, fold less than that found in the circulation ([4]; one hour after single administration of ~50 mg/kg): approximately 10 fold
Compound: O=S(=O)(Nc1cc(Cl)c(Oc2cnc3ccccc3c2)c(Cl)c1)c1ccc(Cl)cc1Cl [INT131]
clinical course from the 22nd day following immunization ([2]; 1 mg/kg): continued to improve slightly
relapse rate (percent of animals relapsed) ([2]; 1 mg/kg/d ip): 9%
clinical course from the 22nd day following immunization ([2]; 3 mg/kg): remained stable
relapse rate (percent of animals relapsed) ([2]; 3 mg/kg/d ip): 16%
disease burden among treated animals that relapse ([2]; in comparison to vehicle treated mice): exceptionally mild
symptoms of animals with EAE ([2]; mouse, in vivo): becoming and remaining mostly symptom-free
effect on relapse ([2]; treatment begun at first remission): virtually blocks relapse
clinical symptoms ([3]; treatment at the height of clinical disease): rapid improvement in clinical symptoms
infiltrating CD45-positive leukocytes in brainstem ([3]; treatment from day 20 (peak of disease), brainstems harvested day 32, either concentration, compared to vehicle): paucity of infiltrating CD45-positive leukocytes; also recorded: paucity of infiltrating white cells
